US6486326B2, “iso-CBI and iso-CI analogs of CC-1065 duocarmycins” (The Scripps Research Institute, priority 1997, dated 2002)
Values joined by “and” are separate entries in the source; they are usually repeats but may differ in a detail not shown here. Equal entries are not always repeated. Where two headings read alike, the source gives them in different places. Each block holds one compound with its values, some of them ahead of it.

What was measured:
[1] = test system: L1210; assay: In vitro cytotoxic activity; format: cell-based
[2] = Stability of neat sample to ambient light and storage; format: physicochemical; settings: 48 h
Procedure: Exclusive spirocyclization with cyclopropane formation was observed, and no competitive O-alkylation leading to 36 was detected. However, prolonged exposure of neat 31 to ambient light at 25° C. […] Thus, the handling and storage of the iso-CBI based agents were conducted minimizing their exposure to light typically at subzero temperatures.

[3] = Solvolysis reactivity (UV, 50% CH3OH-aqueous buffer, pH 3); format: physicochemical; settings: for k, solvolysis rate constant: pH 3, 25° C., CH3OH/aqueous buffer
Procedure: The solvolysis was followed spectrophotometrically by UV with the disappearance of the long-wavelength absorption band of the iso-CBI chromophore (397 nm), FIG. 3.
Solvolysis Reactivity: N-BOC-iso-CBI (31, 0.2 mg) was dissolved in CH3OH (1.5 mL) and mixed with pH 3 aqueous buffer (1.5 mL). The buffer contained 4:1:20 (v/v/v) 0.1 M citric acid, 0.2 M Na2HPO4, and H2O, respectively. The solvolysis solution was sealed and kept at 25° C. protected from light. The UV spectrum was measured at regular intervals every 1 h during the first 24 h, every 4 during the next 72 h, and every 12 h for an additional week. The decrease in the long wavelength absorption at 397 nm was monitored, FIG. 3. […] (FIG. 9).
Similarly, N—CO2Me-iso-CBI (33, 0.2 mg) was dissolved in CH3OH (1.5 mL) and mixed with pH 3 aqueous buffer (1.5 mL). The solvolysis solution was sealed and kept at 25° C. protected from light. The UV spectrum was measured at regular intervals every 1 h during the first 24 h, every 4 h during the next 72 h, and every 12 h for an additional week. The decrease in the long wavelength absorption at 395 nm was monitored, FIG. 3.
Similarly, 35 (0.2 mg) was dissolved in CH3OH (1.5 mL) and mixed with pH 3 aqueous buffer (1.5 mL). The solvolysis solution was sealed and kept at 25° C. protected from light. The UV spectrum was measured at regular intervals every 1 h during the first 12 h, every 2 h for the next 24 h, and every 4 h for an additional day. The decrease in the short wavelength absorption at 239 nm was monitored, FIG. 9.

[4] = test system: w794 DNA (SV40 DNA segment, 144 bp); assay: DNA alkylation selectivity and efficiency, thermally-induced strand cleavage of w794 DNA; format: biochemical
Procedure: FIG. 5 illustrates thermally-induced strand cleavage of w794 DNA (SV40 DNA segment, 144 bp, nucleotide nos. 138-5238); DNA-agent incubation for 24 hours at 25° C., removal of unbound agent and 30 minutes of thermolysis (100° C.), followed by denaturing 8% PAGE and autoradiography, lane 1, control DNA; lanes 2-5, Sanger G, C, A, and T sequencing reactions; lanes 6-7 (−)-iso-CBI-TMI (1×10^−3 and 1×10^−4 M); lanes 8-9, (+)-CBI-TMI (1×10^−5 and 1×10^−4 M); lanes 10-11, (+)-duocarmycin SA (1×10^−5 and 1×10^−6).
FIG. 7 illustrates thermally-induced strand cleavage of w794 DNA (SV40 DNA segment, 144 bp, nucleotide nos. 138-5238); DNA-agent incubation for 24 h at 25° C., removal of unbound agent and 30 min of thermolysis (100° C.), followed by denaturing 8% PAGE and autoradiography; lane 1, control DNA; lanes 2-5, Sanger G, C, A, and T sequencing reactions; lanes 6-8 (+)-duocarmycin SA (1×10^−4 to 1×10^−6 M); lanes9-11, seco-iso-CI-TMI (1×10^−3 to 1×10^−5 M).
DNA Alkylation Selectivity and Efficiency: The DNA alkylation properties of the agents were examined within w794 and w836 duplex DNA for which comparative results are available for related agents. (Boger, D. L., et al., J. Am. Chem. Soc. 1994, 116, 11335; Boger, D. L., et al., J. Am. Chem. Soc. 1994, 116, 6461; and Boger, D. L., et al., J. Am. Chem. Soc. 1995, 117, 11647) The alkylation site identification and the assessment of the relative selectivity among the available sites were obtained by thermally-induced strand cleavage of the singly 5′ end-labeled duplex DNA after exposure to the agents. Following treatment of the end-labeled duplex DNA with a range of agent concentrations and temperatures in the dark, the unbound agent was removed by EtOH precipitation of the DNA Redissolution of the DNA in aqueous buffer, thermolysis (100° C., 30 min) to induce strand cleavage at the sites of DNA alkylation, denaturing high-resolution polyacrylamide gel electrophoresis (PAGE) adjacent to Sanger dideoxynucleotide sequencing standards, and autoradiography led to identification of the DNA cleavage and alkylation sites. The full details of this procedure have been disclosed elsewhere. (Boger, D. L., et al., Tetrahedron 1991, 47, 2661.)
DNA Alkylation Studies: Selectivity and Efficiency: Eppendorf tubes containing singly ^32p 5′-end-labeled double-stranded DNA (9 μL) (Boger, D. L., et al., Tetrahedron 1991, 47, 2661.) in TE buffer (10 mM Tris, 1 mM EDTA, pH 7.5) were treated with the agents in DMSO (1 μL, at the specified concentrations). The solutions were mixed by vortexing and brief centrifugation and subsequently incubated at 4° C., 25° C. or 37° C. for 24-72 h. […]

[5] = test system: calf thymus DNA; assay: Calf thymus DNA alkylation, quantitation of adenine N3 adduct; format: biochemical; settings: 4° C.
Procedure: This was addressed through a study of the alkylation of calf thymus DNA. Optimized conditions for the alkylation were established for (−)-44 on an analytical scale (100 μg of agent). For this purpose, the long-wavelength UV absorption of the agent and the adduct provided a useful quantitative measure of the adenine adduct, unreacted starting material and any side products (solvolysis or rearrangement), Table 3. Analytical HPLC analysis was used to confirm the identity of the products through correlation of retention times and UV spectral data with authentic materials. The preparative DNA alkylation reaction and subsequent isolation of (+)-66 was carried out under conditions determined to provide complete consumption of the agent in the presence of a large excess of DNA Thus, extraction (EtOAc) of the aqueous buffer solution containing calf thymus DNA following alkylation (4° C., 72 h, 150 bp) afforded no recovered (−)-44, and only a small amount (<5%) of the rearranged product 65. Conducting the reaction at 4° C. in the presence of a large excess of DNA precluded competitive solvolysis. Thermal treatment of the alkylated DNA in aqueous 10 mM sodium phosphate buffer (100° C., 30 min, pH 7.0) followed by EtOAc extraction provided 66 in 90-95% conversion, ≧95% purity (by HPLC). Repeating this thermal treatment provided little or no additional adduct. No trace of a competing guanine adduct could be detected. This high conversion to a single adduct established that 44 participates exclusively in the adenine N3 alkylation reaction under the conditions examined.

[6] = pH 3; comparison agents 55-61; cited from earlier work
[7] = cytotoxic activity, read-out: IC50
[8] = L1210, seco precursor, read-out: IC50, L1210

Compound: 2-[((E)-3-(2-Methoxyphenyl)propenyl)carbonyl]-1,2,9,9a-tetrahydrocyclopropa[c]benzo[f]indol-1-one [compound 48]
cytotoxic potency, less potent than 44 and 46 [1]: 40-50 ×

stability of neat sample protected from light ([2]; protected from light by foil): remained unchanged
solvolysis reactivity relative to N-BOC-CBI / corresponding CBI-based agents (more reactive, less stable) ([3]; pH 3): 5 ×
k, solvolysis rate constant [3]: 6.98e-06 s⁻¹ and 6.97e-06 s⁻¹
Compound: CC(C)(C)OC(=O)N1CC2CC23C(=O)c2ccccc2C=C13 (racemic) [compound 31, 2-(tert-Butyloxycarbonyl)-1,2,9,9a-tetrahydrocyclopropa[c]benzo[f]indol-8-one]
cytotoxic potency of unnatural enantiomer relative to natural enantiomer (slightly more potent) [1]: 1-2 ×
stability of neat sample exposed to ambient light ([2]; ambient light, 25° C.): carbonylcyclopropane rearrangement to form 36

k, solvolysis rate constant [3]: 6.4e-06 s⁻¹
Compound: COC(=O)N1CC2CC23C(=O)c2ccccc2C=C13 (racemic) [compound 33, 2-(Methoxycarbonyl)-1,2,9,9a-tetrahydrocyclopropa[c]benzo[f]indol-8-one]

Compound: COc1cc2cc(C(=O)N3CC4CC45C(=O)c4ccccc4C=C35)[nH]c2c(OC)c1OC (racemic) [compound 44, 2-[(5,6,7-Trimethoxyindol-2-yl)carbonyl]-1,2,9,9a-tetrahydrocyclopropa[c]benzo[f]indol-8-one]
cytotoxic potency, 44 compared with 46 [1]: equipotent
DNA alkylation sequence selectivity compared with (+)-duocarmycin SA [4]: same sequence selectivity
adenine adduct 66 ([5]; 72 h, 75 base-pair equiv, analytical scale, HPLC/UV): 94%
adenine adduct 66 ([5]; 72 h, 150 base-pair equiv, analytical scale, HPLC/UV): 95%
adenine adduct 66 ([5]; 72 h, 150 base-pair equiv, preparative scale, isolation and weight): 92%
adenine adduct 66 ([5]; 120 h, 150 base-pair equiv, preparative scale, isolation and weight): 95%

Compound: COc1ccc2[nH]c(C(=O)N3CC4CC45C(=O)c4ccccc4C=C35)cc2c1 (racemic) [compound 46, 2-[(5-Methoxyindol-2-yl)carbonyl]-1,2,9,9a-tetrahydrocyclopropa[c]benzo[f]indol-8-one]
cytotoxic potency, 44 compared with 46 [1]: equipotent

Compound: NC(=O)N1CCc2c1ccc1[nH]c(C(=O)N3CC4CC45C(=O)c4ccccc4C=C35)cc21 (racemic) [compound 52, 2-[(3-Carbamoyl-1,2-dihydro-3H-pyrrolo[3,2-e]indol-7-yl)carbonyl]-2,9,9a-tetrahydrocyclopropa[c]benzo[f]indol-8-one]
IC50 [1, 7]: 0.2 nM

Compound: NC(=O)N1CCc2c1ccc1[nH]c(C(=O)N3CCc4c3ccc3[nH]c(C(=O)N5CC6CC67C(=O)c6ccccc6C=C57)cc43)cc21 (racemic) [compound 54, 2-{[3-[N-(3-Carbamoyl-1,2-dihydro-3H-pyrrolo[3,2-e]indol-7-yl)carbonyl]-1,2-dihydro-3H-pyrrolo[3,2-e]indol-7-yl]carbonyl}-1,2,9,9a-tetrahydrocyclopropa[c]benzo[f]indol-1-one]
IC50 [1, 7]: 0.05 nM

Compound: COc1ccc2c(c1)C13CC1CN(C(=O)OC(C)(C)C)C3=CC2=O (racemic) [compound 59]
k, solvolysis rate constant [6]: 1.75e-06 s⁻¹

Compound: CC(C)(C)OC(=O)N1CC2CC23C1=CC(=O)c1ccc(C#N)cc13 (racemic) [compound 60]
k, solvolysis rate constant [6]: 9.9e-07 s⁻¹

Compound: CC(C)(C)OC(=O)N1CC2CC23C=CC(=O)C=C13 (racemic) [compound 61]
k, solvolysis rate constant [6]: 0.0198 s⁻¹

Compound: CC(C)(C)OC(=O)N1CC(COS(C)(=O)=O)c2c(O)cccc21 (stereo not shown) [compound 19]
IC50 [1, 8]: 10000 nM

Compound: COc1cc2cc(C(=O)N3CC(COS(C)(=O)=O)c4c(O)cccc43)[nH]c2c(OC)c1OC (stereo not shown) [compound 20]
IC50 [1, 8]: 6 nM
DNA alkylation efficiency, less efficient than (+)-duocarmycin SA ([4]; 24 h, 25° C., seco agent): 10 ×

solvolysis reactivity relative to 31 or 33 (more reactive) ([3]; pH 3): 5-6 ×
k, solvolysis rate constant [3]: 3.8e-05 s⁻¹
Compound: O=C1C2=NCC3CC23C(=O)c2ccccc21 (stereo not shown) [compound 35, 9,9a-1H-Dihydrocyclopropa[c]benzo[f]indol-3,8-dione]

Compound: Cc1c[nH]c2c1C13CC1CN(C(=O)OC(C)(C)C)C3=CC2=O (stereo not shown) [compound 55]
k, solvolysis rate constant [6]: 5.26e-06 s⁻¹

Compound: COC(=O)C1(C)NC2=C(C1=O)C13CC1CN(C(=O)OC(C)(C)C)C3=CC2=O (stereo not shown) [compound 56]
k, solvolysis rate constant [6]: 1.75e-05 s⁻¹

Compound: COC(=O)c1cc2c([nH]1)C(=O)C=C1N(C(=O)OC(C)(C)C)CC3CC123 (stereo not shown) [compound 57]
k, solvolysis rate constant [6]: 1.08e-06 s⁻¹

Compound: CC(C)(C)OC(=O)N1CC2CC23C1=CC(=O)c1ccccc13 (stereo not shown) [compound 58]
k, solvolysis rate constant [6]: 1.45e-06 s⁻¹
